Results on 19 compounds are retold here after US6696484B2, “Method and compositions for regulation of 5-alpha reductase activity” (University of Chicago Office of Technology and Intellectual …, priority 1997, dated 2004).

Assay [1] addresses T1, type 2 human 5α-reductase (Homo sapiens, UniProt P31213).
T1 sequence (P31213 1-254): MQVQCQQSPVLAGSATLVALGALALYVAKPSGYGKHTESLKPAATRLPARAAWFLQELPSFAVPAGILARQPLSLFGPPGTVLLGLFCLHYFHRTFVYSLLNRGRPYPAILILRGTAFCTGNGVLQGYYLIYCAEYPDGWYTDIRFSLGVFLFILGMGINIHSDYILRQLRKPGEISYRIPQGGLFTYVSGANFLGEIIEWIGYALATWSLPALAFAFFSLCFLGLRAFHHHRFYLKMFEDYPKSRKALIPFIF
Nature of the assay: Cell-free enzymatic assay of 5α-reductase (testosterone to DHT), type 2. The arrangement: expressed in transfected cells; host or cells: rat 1A cells infected with pMV7 retrovirus and selected with G418; microsomes for the cell-free assay. The conditions noted are these: for inhibition at 100 µM: read-out: percent inhibition of 5α-reductase activity, cell-free assay, Type 2, 100 μM compound; for pIC50: microsomes from rat 1A cells expressing human type 2 5α-reductase, read-out: Cell-free assay IC50, 5α-reductase Type 2. The format is biochemical.

Assay [2] addresses T2, type 1 human 5α-reductase (Homo sapiens, UniProt P18405).
T2 sequence (P18405 1-259): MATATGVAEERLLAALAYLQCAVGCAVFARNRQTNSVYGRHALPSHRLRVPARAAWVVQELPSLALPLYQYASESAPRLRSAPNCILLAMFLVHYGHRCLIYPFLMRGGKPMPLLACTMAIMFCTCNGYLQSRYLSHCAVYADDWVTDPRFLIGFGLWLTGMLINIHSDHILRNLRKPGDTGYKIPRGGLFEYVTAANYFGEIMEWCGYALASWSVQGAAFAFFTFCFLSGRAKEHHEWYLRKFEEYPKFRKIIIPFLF
Nature of the assay: Cell-free enzymatic assay of 5α-reductase (testosterone to DHT), type 1. The conditions noted are these: for inhibition at 100 µM: read-out: percent inhibition of 5α-reductase activity, cell-free assay, Type 1, 100 μM compound; for percent inhibition of 5α-reductase activity, cell-free assay, Type 1: 100 μM compound.

In assay [3] the test system is hamster flank organ. Nature of the assay: Testosterone-stimulated growth of the pigmented macules of hamster flank organs.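 On all read-outs here: prepubertal Syrian golden hamsters castrated at 4 weeks, ethanol vehicle on one flank organ, macule long and short axes gauged by caliper 1 day after final dose.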 In kind it is in vivo, Syrian golden hamsters. The conditions noted are these: 0.5 μg testosterone + 1 mg compound topically daily, 18 days; for Pigmented macule area: castrated male hamsters, mean±SEM.
The target of assay [4] is T2, type 1 human 5α-reductase. Nature of the assay: Whole-cell assay of 5α-reductase, type 1. In kind it is cell-based. The arrangement: expressed in transfected cells; host or cells: rat 1A cells infected with pMV7 retrovirus and selected with G418; microsomes for the cell-free assay, intact cells for the whole-cell assay.
Assay [5] has as its system 5α-reductase. Nature of the assay: Cell-free 5α-reductase assay, isozyme not given. The format is biochemical, human. The conditions noted are these: isozyme not stated.

pIC50: −log10 of the molar value.

In general, inhibition refers to the relative decrease from the control value, in per cent. On to `O=c1c(O)c(-c2ccc(O)cc2O)oc2cc(O)cc(O)c12` [Morin], for which the inhibition at 100 µM amounted to 33% in assay [1] and 6% in assay [2].

Usually pIC50 stands for the IC50 on a negative log10 scale, so that one unit is a factor of ten. Consider “cis or traps-9,11 or 10,12 octadecadienoic acid [Conjugated Octadecadienonic Acid]”, for which, in assay [1] (100 μM compound), the “percent inhibition of 5α-reductase activity, cell-free assay, Type 2” value was 81%. Further, the pIC50 in assay [1] is 4.52; in assay [2] (read-out: Cell-free assay IC50, 5α-reductase Type 1, microsomes from rat 1A cells expressing human type 1 5α-reductase), 5.00. Moreover, the “percent inhibition of 5α-reductase activity, cell-free assay, Type 1” value in assay [2] amounted to 99%.

For `C[C@@H]1O[C@@H](OC[C@H]2O[C@@H](Oc3c(-c4ccc(O)c(O)c4)oc4cc(O)cc(O)c4c3=O)[C@H](O)[C@@H](O)[C@@H]2O)[C@H](O)[C@H](O)[C@H]1O` [Rutin], the inhibition at 100 µM in assay [1] amounted to 0%; in assay [2], 4%.

`O=c1ccc2c(-c3ccccc3S(=O)(=O)O)c3ccc(O)c(O)c3oc-2c1O` [Pyrogallol red, pryrogallolsulfonephthalein]: the inhibition at 100 µM was 27% in assay [1] and 97% in assay [2].

For `CCCC/C=C\CCCCCCCC(=O)O` [myristoleic acid], in assay [3], the “Inhibition (percent decrease in macule area vs androgen-treated macules)” value turned out to be 73% and the Pigmented macule area worked out at 4.63 ± 0.66 mm^2.

Take `CC(Cc1ccc(O)c(O)c1)C(C)Cc1ccc(O)c(O)c1` (centres unmarked) [Nordihydroguaiaretic acid]: the inhibition at 100 µM in assay [1] was 80%. In addition, the pIC50 in assay [4] (rat 1A cells expressing human type 1 5α-reductase) and in assay [2] was 4.72 throughout.

For `O=c1c(O)cccc2cc(O)c(O)c(O)c12` [Purpurogallin], the inhibition at 100 µM in assay [1] came out at 31%; in assay [2], 81%.

Consider `COc1cc(/C=C/CO)ccc1O` [Coniferol, coniferyl alcohol], for which, in assay [1], the pIC50 was 4.00. For the same compound, the inhibition at 100 µM is 49% in assay [1] and 10% in assay [2].

On to `COc1cc(CCC(=O)CC(=O)CCc2ccc(O)cc2)ccc1O` [Demethoxytetrahydrocurcumin, demethoxytetrahydrocurcumin], for which the “percent inhibition of 5α-reductase activity, cell-free assay, Type 1” value in assay [2] worked out at 23%.

For `O=c1ccc2cc(O)c(O)cc2o1` [Esculetin, 6,7-dihydroxycoumarin], the inhibition at 100 µM turned out to be 13% in assay [1] and 7% in assay [2]. The compound further had a pIC50 in assay [5] of under 4.00.

Take `COc1cc2ccc(=O)oc2c(O)c1O` [Fraxetin, 7,8-dihydroxy-6-methoxycoumarin]: the inhibition at 100 µM in assay [1] turned out to be 8%; in assay [2], 2%. This compound gave a pIC50 in assay [5] of under 4.00.

With `O=c1cc(-c2ccccc2)oc2cc(O)cc(O)c12` [Chrysin], the inhibition at 100 µM in assay [1] was found to be 1%; in assay [2], 2%.

Consider `O=C1C=CC(=C(c2ccc(O)c(O)c2)c2ccccc2S(=O)(=O)O)C=C1O` (mixture of isomers) [Pyrocatechol violet, pyrocatecholsulfonephthalein], for which the pIC50 in assay [1] is 4.00.

On to `O=C1c2ccccc2C(=O)c2ccccc21` [Anthraquinone], for which the pIC50 in assay [5] is under 4.00.

In the case of `O=C1c2ccccc2C(=O)c2c1cc(S(=O)(=O)[O-])c(O)c2O.[Na+]` [Alizarin red S], the “percent inhibition of 5α-reductase activity, whole-cell assay, Type 1” value in assay [4] (100 μM compound) came out at 22%.

For `C=CCc1ccc(O)c(OC)c1` [Eugenol], in assay [1], the pIC50 is 4.00.

Consider `O=C1c2ccccc2C(=O)c2c(O)c(O)cc(O)c21` [Purpurin], for which the figures for the inhibition at 100 µM in assay [1] and in assay [2] were 20% and 95%, respectively.

As for `CCCCC/C=C\C/C=C\C/C=C\CCCCC(=O)O` [Gamma-Linolenic Acid, Gamma-Linolenic Acid C18:3 CIS 6.9,12], in assay [3], the “Inhibition (percent decrease in macule area vs androgen-treated macules)” value is 82% and the Pigmented macule area was determined as 3.15 ± 0.42 mm^2.

In turn, `O=c1oc2c(O)c(O)cc3c(=O)oc4c(O)c(O)cc1c4c23` [Ellagic acid] gave a pIC50 in assay [5] of under 4.00.
